From US20200165257A1, “INHIBITORS OF PHOSPHOINOSITIDE 3-KINASE AND HISTONE DEACETYLASE FOR TREATMENT OF CANCER” (THE UNITED STATES OF AMERICA, AS REPRESENTED BY THE …, priority 2017, published 2020)
Like-named read-outs stand apart in the source and are kept apart here.

Experiments:
[1] = test system: Breast Cancer Cell Line MDA-MB-468; assay: cells; details: Homo sapiens, MDA-MB-468, read-out: inhibition of proliferation
[2] = biological target: PI3Kγ (Homo sapiens, UniProt P48736); assay: PI3Kγ kinase assay (HTRF); assay type: biochemical
PI3Kγ, sequence (P48736 whole entry): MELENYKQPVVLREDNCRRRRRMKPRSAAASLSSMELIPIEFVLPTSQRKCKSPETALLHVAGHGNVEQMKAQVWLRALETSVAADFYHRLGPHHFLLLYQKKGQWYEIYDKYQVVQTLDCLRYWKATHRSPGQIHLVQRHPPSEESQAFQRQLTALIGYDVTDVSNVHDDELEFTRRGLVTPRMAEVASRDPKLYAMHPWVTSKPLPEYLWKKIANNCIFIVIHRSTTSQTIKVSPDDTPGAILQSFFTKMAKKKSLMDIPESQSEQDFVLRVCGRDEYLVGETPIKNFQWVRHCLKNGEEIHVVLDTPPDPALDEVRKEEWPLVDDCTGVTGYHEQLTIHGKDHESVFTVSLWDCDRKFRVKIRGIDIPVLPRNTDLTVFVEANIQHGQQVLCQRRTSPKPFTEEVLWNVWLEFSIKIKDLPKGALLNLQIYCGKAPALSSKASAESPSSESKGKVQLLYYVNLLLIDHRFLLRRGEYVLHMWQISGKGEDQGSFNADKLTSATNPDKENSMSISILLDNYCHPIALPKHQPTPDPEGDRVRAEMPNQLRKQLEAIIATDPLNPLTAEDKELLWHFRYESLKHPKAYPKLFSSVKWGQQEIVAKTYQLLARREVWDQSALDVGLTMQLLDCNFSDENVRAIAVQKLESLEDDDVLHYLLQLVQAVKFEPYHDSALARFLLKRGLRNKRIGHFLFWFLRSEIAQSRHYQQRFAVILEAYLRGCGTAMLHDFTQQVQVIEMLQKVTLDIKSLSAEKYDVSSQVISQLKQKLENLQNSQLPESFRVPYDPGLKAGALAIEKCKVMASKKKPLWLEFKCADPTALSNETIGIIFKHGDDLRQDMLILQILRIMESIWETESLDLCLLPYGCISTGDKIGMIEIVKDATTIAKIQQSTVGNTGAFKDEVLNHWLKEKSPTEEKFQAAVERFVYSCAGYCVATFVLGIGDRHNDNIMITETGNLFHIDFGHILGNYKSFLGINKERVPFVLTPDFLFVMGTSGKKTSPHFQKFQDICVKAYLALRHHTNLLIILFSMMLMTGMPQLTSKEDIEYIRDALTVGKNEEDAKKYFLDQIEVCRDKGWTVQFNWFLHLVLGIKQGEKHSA
Experimental: (§1) The PIP3 product is detected by displacement of biotin-PIP3 from an energy transfer complex consisting of Europium labeled anti-GST monoclonal antibody, a GST-tagged pleckstrin homology (PH) domain, biotinylated PIP3 and Streptavidin-Allophycocyanin (APC). […] The PIP3 product formed by PI 3-Kinase(h) activity displaces biotin-PIP3 from the complex resulting in a loss of energy transfer, and thus, a decrease in signal.
(§2) First, the kinase reaction with PIP2 substrate is carried out in the presence of ATP, and the reaction is quenched with stop Solution, and then, finally detect by adding Detection Mixture followed by incubation.
(§3) HEPES 50 mM (pH7.0), NaN3 0.02%, BSA 0.01%, Orthovanadate 0.1 mM, 1% DMSO.
(§4) Detection buffer: HEPES 10 mM (pH7.0), BSA 0.02%, KF 0.16 M, EDTA 4 mM.
(§5) 10 μM PIP2 substrate (PI(4,5)P2)
(§6) 10 μM ATP under standard conditions
(§7) 1. Prepare substrate in freshly prepared Reaction Buffer.
(§8) 2. Deliver kinase into the substrate solution and gently mix.
(§9) 3. Deliver compounds in 100% DMSO into the kinase reaction mixture by Acoustic technology (Echo550; nanoliter range), incubate for 10 min at room temperature.
(§10) 4. Deliver ATP into the reaction mixture to initiate the reaction.
(§11) 5. Incubate for 30 min at 30° C.
(§12) 6. Quench the reaction with Stop Solution.
(§13) 7. Add Detection Mixture, and incubate for overnight.
(§14) The emission ratio is converted into μM PIP3 production based on PIP3 standard curves.
(§15) The nonlinear regression to obtain the standard curve and IC50 values are performed using Graphpad Prism software.

[3] = test system: Leukemia Cell Line SR; assay: cells; assay type: cell-based; details: Homo sapiens, read-out: inhibition of proliferation
[4] = biological target: PI3Kβ (Homo sapiens, UniProt P42338); assay: PI3Kβ kinase assay (HTRF); assay type: biochemical
PI3Kβ, sequence (P42338 whole entry): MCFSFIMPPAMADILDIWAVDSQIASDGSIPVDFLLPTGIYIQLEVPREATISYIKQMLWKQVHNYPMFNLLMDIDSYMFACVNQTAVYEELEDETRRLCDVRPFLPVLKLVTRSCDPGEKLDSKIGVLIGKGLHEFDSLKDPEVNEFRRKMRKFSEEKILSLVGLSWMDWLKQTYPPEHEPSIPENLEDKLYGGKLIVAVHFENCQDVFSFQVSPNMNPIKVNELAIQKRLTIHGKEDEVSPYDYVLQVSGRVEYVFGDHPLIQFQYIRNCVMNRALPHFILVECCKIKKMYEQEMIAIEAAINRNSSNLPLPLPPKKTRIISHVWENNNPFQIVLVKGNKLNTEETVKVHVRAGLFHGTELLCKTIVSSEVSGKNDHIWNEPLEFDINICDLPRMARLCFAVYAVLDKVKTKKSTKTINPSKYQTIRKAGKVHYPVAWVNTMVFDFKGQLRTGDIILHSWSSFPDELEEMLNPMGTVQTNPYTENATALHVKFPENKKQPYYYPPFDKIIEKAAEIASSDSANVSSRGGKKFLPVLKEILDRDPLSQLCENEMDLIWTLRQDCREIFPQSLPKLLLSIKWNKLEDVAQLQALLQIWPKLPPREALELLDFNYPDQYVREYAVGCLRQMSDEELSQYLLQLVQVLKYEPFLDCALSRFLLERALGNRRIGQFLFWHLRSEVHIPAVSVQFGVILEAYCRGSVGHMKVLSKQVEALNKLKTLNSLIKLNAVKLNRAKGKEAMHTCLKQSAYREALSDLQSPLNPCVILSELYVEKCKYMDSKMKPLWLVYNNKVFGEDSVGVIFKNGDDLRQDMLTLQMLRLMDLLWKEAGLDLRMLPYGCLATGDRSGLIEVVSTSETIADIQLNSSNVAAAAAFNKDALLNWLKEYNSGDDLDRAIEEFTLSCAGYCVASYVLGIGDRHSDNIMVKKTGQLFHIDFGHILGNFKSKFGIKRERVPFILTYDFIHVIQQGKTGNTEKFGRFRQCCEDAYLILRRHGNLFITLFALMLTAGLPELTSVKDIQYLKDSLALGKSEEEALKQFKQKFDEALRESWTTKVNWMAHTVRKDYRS
PI3Kβ, sequence (P27986 whole entry partner): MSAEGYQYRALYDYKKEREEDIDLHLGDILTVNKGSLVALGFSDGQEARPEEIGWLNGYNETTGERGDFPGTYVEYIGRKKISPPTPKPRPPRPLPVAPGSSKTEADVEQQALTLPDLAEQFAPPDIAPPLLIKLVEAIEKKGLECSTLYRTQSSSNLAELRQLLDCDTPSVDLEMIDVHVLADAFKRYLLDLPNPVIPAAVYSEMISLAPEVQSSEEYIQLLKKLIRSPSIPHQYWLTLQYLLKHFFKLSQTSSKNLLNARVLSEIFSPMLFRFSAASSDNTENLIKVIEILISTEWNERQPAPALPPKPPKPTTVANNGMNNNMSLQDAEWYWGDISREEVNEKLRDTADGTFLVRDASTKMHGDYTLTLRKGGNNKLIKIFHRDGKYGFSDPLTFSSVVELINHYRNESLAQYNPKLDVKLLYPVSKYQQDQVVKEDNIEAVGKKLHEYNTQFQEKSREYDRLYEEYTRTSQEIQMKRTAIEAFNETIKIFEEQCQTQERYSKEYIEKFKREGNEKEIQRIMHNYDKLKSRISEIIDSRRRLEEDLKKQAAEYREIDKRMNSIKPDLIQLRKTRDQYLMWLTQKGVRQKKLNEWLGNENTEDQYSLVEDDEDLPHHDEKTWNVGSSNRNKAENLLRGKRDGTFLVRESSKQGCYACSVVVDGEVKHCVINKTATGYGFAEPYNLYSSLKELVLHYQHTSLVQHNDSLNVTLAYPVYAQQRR
Experimental: as §1, §2, §3, §4, §5, §6, §7, §8, §9, §10, §11, §12, §13, §14, §15

[5] = test system: Leukemia Cell Line RPMI-8226; assay type: cell-based; details: Homo sapiens
[6] = biological target: T1, HDAC6 (Homo sapiens, UniProt Q9UBN7); assay: HDAC Fluorescent Activity Assay; assay type: biochemical; details: for inhibition at 1 µM: symbols ** / *, read-out: HDAC6 Inhibition Activity (% Inhibition class)
T1 sequence (Q9UBN7 1-1215): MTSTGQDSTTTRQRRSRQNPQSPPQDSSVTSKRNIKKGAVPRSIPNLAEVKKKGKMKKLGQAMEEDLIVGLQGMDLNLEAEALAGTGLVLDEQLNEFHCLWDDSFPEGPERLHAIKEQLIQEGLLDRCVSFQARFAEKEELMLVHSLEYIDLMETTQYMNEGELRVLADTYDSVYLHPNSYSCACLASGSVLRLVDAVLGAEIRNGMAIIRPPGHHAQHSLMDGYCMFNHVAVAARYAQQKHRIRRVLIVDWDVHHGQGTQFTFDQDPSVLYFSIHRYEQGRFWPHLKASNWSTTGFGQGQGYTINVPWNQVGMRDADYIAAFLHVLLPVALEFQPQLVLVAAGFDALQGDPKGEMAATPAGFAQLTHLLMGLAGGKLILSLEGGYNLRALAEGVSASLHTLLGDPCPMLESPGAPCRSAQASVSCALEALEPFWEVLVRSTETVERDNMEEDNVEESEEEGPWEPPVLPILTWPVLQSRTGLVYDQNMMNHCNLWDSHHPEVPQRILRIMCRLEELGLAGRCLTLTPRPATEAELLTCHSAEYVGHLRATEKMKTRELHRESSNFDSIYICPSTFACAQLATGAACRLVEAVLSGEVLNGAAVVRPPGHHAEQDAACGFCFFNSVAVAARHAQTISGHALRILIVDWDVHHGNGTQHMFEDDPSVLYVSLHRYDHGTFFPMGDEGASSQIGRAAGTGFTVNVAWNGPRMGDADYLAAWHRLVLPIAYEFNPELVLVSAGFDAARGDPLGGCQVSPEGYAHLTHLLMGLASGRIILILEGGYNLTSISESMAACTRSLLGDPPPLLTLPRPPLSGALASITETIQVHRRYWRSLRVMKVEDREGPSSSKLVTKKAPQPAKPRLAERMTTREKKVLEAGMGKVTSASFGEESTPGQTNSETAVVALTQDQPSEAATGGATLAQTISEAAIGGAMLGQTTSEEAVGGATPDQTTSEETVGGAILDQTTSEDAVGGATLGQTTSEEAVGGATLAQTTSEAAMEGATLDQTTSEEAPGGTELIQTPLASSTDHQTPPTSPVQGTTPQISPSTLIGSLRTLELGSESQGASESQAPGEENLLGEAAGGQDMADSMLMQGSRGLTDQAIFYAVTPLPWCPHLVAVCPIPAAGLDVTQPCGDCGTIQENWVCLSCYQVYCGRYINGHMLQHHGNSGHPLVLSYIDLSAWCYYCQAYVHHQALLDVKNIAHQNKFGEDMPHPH
Experimental: This protocol is to determine the IC50s or percentage of inhibition values of the test compound against HDACs.
The HDAC Fluorescent Activity Assay is based on the unique Fluorogenic Substrate and Developer combination. […] First, the Fluorogenic Substrate, which comprises an acetylated lysine side chain, is incubated with a purified HDAC enzyme. Deacetylation of the substrate sensitizes the substrate so that, in the second step, treatment with the Developer produces a fluorophore.
Testing compounds were dissolved in 100% DMSO to specific concentration. […]
1. Deliver 2× enzyme in wells of reaction plate except No Enzyme control wells. Add buffer in No En wells.
2. Deliver compounds in 100% DMSO into the enzyme mixture by Acoustic technology (Echo550; nanoliter range). Spin down and pre-incubation.
3. Deliver 2× Substrate Mixture (Fluorogenic HDAC Substrate and co-factor if applicable) in all reaction wells to initiate the reaction. Spin and shake.
4. Incubate for 1-2 hr at 30° C. with seal.
5. Add Developer with Trichostatin A (or TMP269) to stop the reaction and to generate fluorescent color.
6. Fluorescence was read (excitatory, 360; emission, 460) using the EnVision Multilabel
7. Take endpoint reading for analysis after the development reaches plateau.
The percentages of enzyme activity (relative to DMSO controls) and IC50 values were calculated using the GraphPad Prism 4 program based on a sigmoidal dose-response equation.

[7] = biological target: PI3Kδ (Homo sapiens, UniProt O00329); assay: PI3Kδ kinase assay (HTRF); assay type: biochemical; details: for inhibition at 1 µM: symbols ** / *, read-out: PI3Kδ Inhibition Activity (% Inhibition class)
PI3Kδ, sequence (O00329 whole entry): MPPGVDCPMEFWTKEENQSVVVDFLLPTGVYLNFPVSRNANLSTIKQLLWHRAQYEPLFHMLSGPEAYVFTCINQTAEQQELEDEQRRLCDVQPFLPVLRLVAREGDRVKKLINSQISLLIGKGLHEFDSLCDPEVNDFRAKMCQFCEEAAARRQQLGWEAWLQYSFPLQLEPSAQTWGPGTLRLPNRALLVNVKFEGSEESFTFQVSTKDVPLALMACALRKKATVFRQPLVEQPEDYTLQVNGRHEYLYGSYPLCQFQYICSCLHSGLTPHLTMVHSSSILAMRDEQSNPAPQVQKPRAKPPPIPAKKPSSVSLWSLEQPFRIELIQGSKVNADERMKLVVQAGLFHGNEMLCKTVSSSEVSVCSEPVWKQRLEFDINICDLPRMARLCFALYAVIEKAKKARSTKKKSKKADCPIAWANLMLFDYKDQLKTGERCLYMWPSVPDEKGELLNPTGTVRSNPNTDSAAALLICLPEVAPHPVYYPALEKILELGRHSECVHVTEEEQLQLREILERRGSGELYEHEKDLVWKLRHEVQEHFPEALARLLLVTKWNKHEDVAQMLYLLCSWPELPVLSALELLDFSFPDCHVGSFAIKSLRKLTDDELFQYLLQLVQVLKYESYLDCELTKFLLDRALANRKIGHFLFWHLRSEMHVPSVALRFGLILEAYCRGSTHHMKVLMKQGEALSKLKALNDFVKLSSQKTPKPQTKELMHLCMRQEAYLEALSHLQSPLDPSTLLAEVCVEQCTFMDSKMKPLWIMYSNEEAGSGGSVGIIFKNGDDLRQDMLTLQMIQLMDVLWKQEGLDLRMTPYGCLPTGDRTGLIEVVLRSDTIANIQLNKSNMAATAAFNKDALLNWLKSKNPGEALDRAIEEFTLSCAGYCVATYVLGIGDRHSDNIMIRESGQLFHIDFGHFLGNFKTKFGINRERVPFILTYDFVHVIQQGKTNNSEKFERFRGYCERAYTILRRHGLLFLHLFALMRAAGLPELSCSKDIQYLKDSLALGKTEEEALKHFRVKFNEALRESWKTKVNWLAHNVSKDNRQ
PI3Kδ, sequence (P27986 whole entry partner): as the sequence (P27986 whole entry partner) above
Experimental: as §1, §2, §3, §4, §5, §6, §7, §8, §9, §10, §11, §12, §13, §14, §15

[8] = test system: Leukemia Cell Line MOLT-4; assay type: cell-based; details: Homo sapiens
[9] = test system: Breast Cancer Cell Line HS 578T; assay type: cell-based; details: Homo sapiens, read-out: inhibition of proliferation
[10] = biological target: PI3Kα (Homo sapiens, UniProt P42336); assay: PI3Kα kinase assay (HTRF); assay type: biochemical
PI3Kα, sequence (P42336 whole entry): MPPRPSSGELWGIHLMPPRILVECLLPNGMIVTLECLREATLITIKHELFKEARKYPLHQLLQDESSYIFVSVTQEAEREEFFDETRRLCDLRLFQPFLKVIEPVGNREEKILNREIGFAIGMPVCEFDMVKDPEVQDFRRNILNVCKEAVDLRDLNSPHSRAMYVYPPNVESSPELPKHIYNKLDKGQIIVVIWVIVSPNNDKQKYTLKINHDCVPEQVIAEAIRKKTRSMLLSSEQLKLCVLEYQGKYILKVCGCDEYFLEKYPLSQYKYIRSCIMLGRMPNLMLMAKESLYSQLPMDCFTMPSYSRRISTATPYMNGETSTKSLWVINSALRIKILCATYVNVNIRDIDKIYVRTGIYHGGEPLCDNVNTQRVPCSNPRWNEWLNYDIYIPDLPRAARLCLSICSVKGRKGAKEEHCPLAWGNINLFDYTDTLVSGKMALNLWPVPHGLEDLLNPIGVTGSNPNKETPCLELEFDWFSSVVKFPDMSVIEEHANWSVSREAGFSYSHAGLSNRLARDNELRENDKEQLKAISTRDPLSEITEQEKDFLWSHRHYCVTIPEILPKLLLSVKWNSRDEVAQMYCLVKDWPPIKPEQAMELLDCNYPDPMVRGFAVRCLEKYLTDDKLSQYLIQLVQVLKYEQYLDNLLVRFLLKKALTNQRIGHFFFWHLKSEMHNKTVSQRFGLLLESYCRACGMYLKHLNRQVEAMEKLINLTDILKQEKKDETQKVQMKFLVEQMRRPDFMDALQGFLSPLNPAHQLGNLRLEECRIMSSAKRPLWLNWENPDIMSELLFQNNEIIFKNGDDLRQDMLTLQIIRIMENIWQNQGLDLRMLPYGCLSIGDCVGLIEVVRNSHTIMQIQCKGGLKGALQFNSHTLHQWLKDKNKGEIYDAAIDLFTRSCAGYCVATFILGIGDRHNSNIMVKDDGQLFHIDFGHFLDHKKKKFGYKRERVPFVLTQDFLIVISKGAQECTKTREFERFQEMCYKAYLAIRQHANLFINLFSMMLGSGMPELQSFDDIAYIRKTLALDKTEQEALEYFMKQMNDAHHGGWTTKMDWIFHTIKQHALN
PI3Kα, sequence (P27986 whole entry partner): as the sequence (P27986 whole entry partner) above
Experimental: as §1, §2, §3, §4, §5, §6, §7, §8, §9, §10, §11, §12, §13, §14, §15

[11] = test system: Leukemia Cell Line HL-60(TB); assay type: cell-based; details: Homo sapiens
[12] = test system: Ovarian Cell Line OVCAR-8; assay: cells; assay type: cell-based; details: Homo sapiens, OVCAR-8, read-out: inhibition of proliferation
[13] = test system: Leukemia Cell Line CCRF-CEM; assay: cells; assay type: cell-based; details: Homo sapiens, read-out: inhibition of proliferation
[14] = test system: Breast Cancer Cell Line BT-549; assay: cells; assay type: cell-based; details: Homo sapiens, BT-549, read-out: inhibition of proliferation
[15] = test system: Melanoma Cell Line UACC-62; assay: cells; assay type: cell-based; details: Homo sapiens
[16] = test system: Ovarian Cell Line OVCAR-3; assay: cells; details: Homo sapiens, OVCAR-3, read-out: inhibition of proliferation
[17] = test system: Ovarian Cell Line NCI/ADR-RES; assay: cells; assay type: cell-based; details: Homo sapiens, read-out: inhibition of proliferation
[18] = test system: Ovarian Cell Line IGROV1; assay type: cell-based; details: Homo sapiens
[19] = HS 578T, single dose, 10 uM compound concentration
[20] = HL-60, read-out: inhibition of proliferation
[21] = UACC-62, read-out: inhibition of proliferation
[22] = RPMI-8226, read-out: inhibition of proliferation
[23] = MOLT-4, read-out: inhibition of proliferation
[24] = IGROV-1, read-out: inhibition of proliferation

Structure (SMILES)	inhibition at 10 µM [1] [%]	inhibition at 1 µM [2] [%]	inhibition at 1 µM [4] [%]	inhibition at 1 µM [6] [%]	inhibition at 1 µM [7] [%]	inhibition at 10 µM [9, 19] [%]	inhibition at 1 µM [10] [%]	inhibition at 10 µM [11, 20] [%]	inhibition at 10 µM [12] [%]	inhibition at 10 µM [13] [%]	inhibition at 10 µM [14] [%]	inhibition at 10 µM [15, 21] [%]	inhibition at 10 µM [5, 22] [%]	inhibition at 10 µM [16] [%]	inhibition at 10 µM [8, 23] [%]	inhibition at 10 µM ([9]; Hs-578T) [%]	inhibition at 10 µM [18, 24] [%]	inhibition at 10 µM [3] [%]	other results
CC[C@H](Nc1ncnc2[nH]cnc12)c1nc2cccc(CC(=O)c3ccc(C(=O)NO)cc3)c2c(=O)n1-c1ccccc1 [Compound I, (S)-4-(2-(2-(1-((9H-purin-6-yl)amino)propyl)-4-oxo-3-phenyl-3,4-dihydroquinazolin-5-yl)acetyl)-N-hydroxybenzamide]	25 to 50	< 85	< 85	> 90	> 90	25 to 50	< 85												inhibition at 10 µM ([3]; SR, single dose, 10 uM compound concentration): 25 to 50%; inhibition at 10 µM ([5]; RPMI-8226, single dose, 10 uM compound concentration, read-out: inhibition of proliferation): > 50%; inhibition at 10 µM ([8]; MOLT-4, single dose, 10 uM compound concentration, read-out: inhibition of proliferation): 25 to 50%
CC[C@H](Nc1nc(N)nc(C)c1C#N)c1nc2cccc(NCc3ccc(C(=O)NO)cc3)c2c(=O)n1-c1ccccc1 [Compound XL, (S)-4-(((2-(1-((2-amino-5-cyano-6-methylpyrimidin-4-yl)amino)propyl)-4-oxo-3-phenyl-3,4-dihydroquinazolin-5-yl)amino)methyl)-N-hydroxybenzamide]	> 50							> 50	> 50	> 50	> 50	> 50	> 50	> 50	> 50	> 50	> 50		inhibition at 10 µM [17]: 25 to 50%
CC[C@H](Nc1ncnc2[nH]cnc12)c1nc2cccc(CCCCNC(=O)NO)c2c(=O)n1-c1ccccc1 [Compound XXIV]	25 to 50	91	< 85				< 85	> 50		25 to 50	25 to 50	25 to 50				25 to 50	> 50	25 to 50	IC50 ([6]; symbols ++ / +, read-out: HDAC6 Inhibition Activity (IC50 class)): > 100 nM; IC50 ([7]; symbols ++ / +, read-out: PI3Kδ Inhibition Activity (IC50 class)): < 100 nM
CC[C@H](Nc1ncnc2[nH]cnc12)c1nc2cccc(CCCCC(=O)NO)c2c(=O)n1-c1ccccc1 [XII, (S)-5-(2-(1-((9H-purin-6-yl)amino)propyl)-4-oxo-3-phenyl-3,4-dihydroquinazolin-5-yl)-N-hydroxypentanamide]	25 to 50									25 to 50			> 50		25 to 50	25 to 50		> 50	
CC[C@H](Nc1cc(C)nc(N)n1)c1nc2cccc(NCc3ccc(C(=O)NO)cc3)c2c(=O)n1-c1ccccc1 [XLI, (S)-4-(((2-(1-((2-amino-6-methylpyrimidin-4-yl)amino)propyl)-4-oxo-3-phenyl-3,4-dihydroquinazolin-5-yl)amino)methyl)-N-hydroxybenzamide]	> 50							> 50	> 50	> 50	> 50	> 50	> 50	> 50	> 50	> 50	> 50		
CC[C@H](Nc1nc(N)nc(C)c1C#N)c1nc2cccc(N3CCC(CC(=O)NO)CC3)c2c(=O)n1-c1ccccc1 [XLIX, (S)-2-(1-(2-(1-((2-amino-5-cyano-6-methylpyrimidin-4-yl)amino)propyl)-4-oxo-3-phenyl-3,4-dihydroquinazolin-5-yl)piperidin-4-yl)-N-hydroxyacetamide]	25 to 50			< 90	> 90	25 to 50													inhibition at 10 µM ([11]; HL-60(TB), single dose, 10 uM compound concentration, read-out: inhibition of proliferation): 25 to 50%; inhibition at 10 µM ([13]; single dose, 10 uM compound concentration): 25 to 50%; inhibition at 10 µM ([15]; UACC-62, single dose, 10 uM compound concentration, read-out: inhibition of proliferation): 25 to 50%; inhibition at 10 µM ([18]; IGROV-1, IGROV1, single dose, 10 uM compound concentration, read-out: inhibition of proliferation): 25 to 50%
